The record followed here is patent publication US12681009B2, “Molecular target in cancer” (The Regents of the University of California, priority 2021, dated 2026).

The target in one data set is T1, MSI2-RNA interaction (Homo sapiens, UniProt Q96DH6).
T1 construct: purchased LS Bio G2396
In words: MSI2 TR-FRET assay, primary screen and triplicate confirmation. It counts as binding. The conditions noted are these: identified by the method disclosed herein. As for the experimental part:
In some embodiments, inhibitory compounds of MSI2-RNA interactions were identified using the methods disclosed herein. In a primary screening of small molecule compound libraries using the MSI2 binding TR-FRET assay, 194,914 compounds were screened at 15 μM final concentration for induced inhibition of MSI2-RNA interaction. Hit compounds were selected with a cut-off of at least 30% inhibition. Subsequently, after analysis of donor- and acceptor-channels, and removal of potential detection artefacts, 1,391 compounds were selected and confirmed by MSI2 and U1A TR-FRET assays in triplicates and at 15 μM concentration (Table 1).
(§1) FIG. 6 illustrates the FRET assay principle for MSI2 and U1A. The NUMB RNA probe for MSI2 was selected based on prior scientific publications and has the following sequence: 5′[…]-Biotin (SEQ ID NO: 1) (Oncotarget, 8(63): 106587-106597 (2017). The RNA probe for U1A was designed based on an interaction study between U1A and RNA done by NMR (Structure 4(5): 621-631 (1996)) and has the following sequence: 5′[…]-Biotin (SEQ ID NO: 2). The underlined sequence represents the part which interacts with the protein, the sequence of AYYGCAC should fit into the groove of U1A according to the NMR studies. The remaining sequence without underline is a spacer. The assay developed provides robust TR-FRET readout.
FIG. 7 illustrates the high throughput screening workflow. […] The hit cut-off criteria are >30% inhibition. The hit triaging is based on analysis of donor- and acceptor-channels, removal of potential detection artefacts. The hit confirmation is based on triplicate confirmation runs (15 μM) in MSI2 and U1A TR-FRET assays. The compound selection for dose-response is a dose-response testing in MSI2 and U1A to filter for compounds that have the drug potential. The hit selection for hit to lead (HTL) is based on QC on dose responsive hits SAR tractability, and model building for hit expansion.

Data set [1] has as its target T2, Musashi RNA Binding Protein 2 (MSI2) (Homo sapiens, UniProt Q96DH6).
T2 construct: purchased LS Bio G2396
In words: MSI2:NUMB-Biotin5′ RNA binding assay HTRF, 10-point duplicate dose response curves of 512 compounds (FIG. 14). The settings on record: 10-point duplicate curves, 100 μM to 5.6 nM, 3× dilution, MSI2 (His tag) 5 nM, NUMB-Biotin5′ RNA 1.25 nM, Streptavidin XL665 5 nM, His TB-Cryptate 0.6 nM, pH 7.3, read-out: MSI2 IC50 (normalized FRET ratio).
Source text: In some embodiments, a MSI2 binding assay was developed where streptavidin labeled with XL665 or d2 was used as the acceptor, and Terbium (Tb) cryptate was used as the donor. For example, in the MSI2 binding assay, NUMB RNA was biotinylated at the 5′ end to create NUMB-Biotin 5′ RNA, which was coupled to the XL665 or d2-labeled streptavidin acceptor through streptavidin-biotin interaction. The MSI2 protein was engineered to contain a His tag, which was coupled to the Tb cryptate donor through an anti-His antibody attached to the Tb cryptate. Due to the MSI2-NUMB RNA interaction, the XL665 or d2 acceptor was brought into proximity of the Tb cryptate donor, thus generating a detectable FRET signal. Parameters of the binding assay, including the concentrations of MSI2 and NUMB-Biotin 5′ RNA, were optimized. Thus, the interaction of the MSI2 protein to NUMB-Biotin 5′ RNA could create a detectable FRET signal that can be used for subsequent binding assays and screening for modulators of MSI2-RNA interactions.
Reagents and protein/peptide: MSI2-LS Bio G2396 (provided in 20 mM Tris-HCL pH 8.0, 150 mM NaCl, 10% glycerol, 1 mM DTT); U1A-LS Bio G19194-10 (provided in 16 mM HEPES, pH 7.6, 400 mM NaCl, 20% glycerol); NUMB 5′Biotin—(IDT); NUMB 5′—(IDT); U1A RNA 5′ Biotin—(IDT); U1A RNA 5′—(IDT); HEPES pH 7.3 (RNase/DNase free)—(Fisher—BP299); Molecular grade water (RNase/DNase free)—(Invitrogen-10977-95); DTT (molecular grade—RNase/DNase free)—(Promega-V3151); Pluronic F-127—(Sigma Aldrich SKU #P2443); NaCl (RNase/DNase free)—(Sigma—S3014); 6His Terbium (TB) Cryptate—(CisBio—61HI2TLA); Streptavidin XL665 (CisBio—610SAXLA); AlphaPlate-1536 well flat bottom plate, Light gray (Perkin Elmer #6004350); and AlphaScreen Histidine Detection Kit (Perkin Elmer, Cat. No. 6760619C) containing AlphaScreen Nickel Chelate Acceptor Beads (5 mg/ml), and AlphaScreen Streptavidin Donor Beads (5 mg/ml).
as §1
IC50 analysis of 512 compounds selected from the confirmation screen (MSI2:NUMB-Biotin5′) screen was performed. The 512 compounds were run in duplicate 10-point dose response curve with a high concentration of 100 μM and a low concentration of 5.6 nM. The total volume of the assay was 8 μl and all steps except for ECHO dispense were performed on Tempest disperser. 80 nL of compounds in DMSO was dispensed in 10 point titrations of 3× dilutions with the t concentration of 100 μM and the bottom concentration of 5.6 nM from 10 mM stock using ECHO acoustic dispenser-duplicate curves on the same assay plate. 2 μL of assay buffer was added, 2 μL of MSI2 (4× Conc.) final concentration of 5 nM was added, and incubated for 30 minutes. […]
On the technique in general: Time-resolved FRET reads energy transfer from a long-lived donor to a nearby acceptor.

Data set [2] has as its target T3, MSI2 protein and NUMB-Biotin5′ RNA (Homo sapiens, UniProt Q96DH6).
T3 construct: purchased LS Bio G2396
The data set can be described thus: MSI2:NUMB-CTRL RNA competition assay, HTRF (384 well plate). It counts as binding. The settings on record: competitor RNA titrated from 1000 nM, 2× dilution over 9 points; MSI2 5 nM + NUMB-Biotin5′ 1.25 nM. As for the experimental part:
(§2) MSI2: Numb/U1A:Target RNA Competition assay-HTRF (384 well plate): CisBio HTRF protocol was followed in a total assay volume of 20 μl. 5 μL of NUMB-CTRL RNA/Target-CTRL (4× Conc.) titrated in 10 point in 2× dilution, 5 μL of MSI2 protein/U1A protein (4× Conc.) final concentration of 5 nM was added to each well, 5 μL of NUMB-Biotin5′/Target-Biotin5′ RNA (4× Conc.) final concentration of 1.25 nM and Streptavidin XL665 acceptor (4×) final concentration of 5 nM were added, and incubated for 60 minutes at room temperature. 5 μL of 4×His TB cryptate, final concentration of 0.6 nM was added and incubated at room temperature for 60 minutes and read on envision. The assay buffer contained 150 mM NaCl, 25 mM HEPES pH 7.3, 1 mM DTT, and 0.05% pluronic F-127.
(§3) NUMB RNA or U1A target RNA was titrated starting from 1000 nM in 2× dilution over 9 points against MSI2 5 nM+NUMB-Biotin5′ 1.25 nM. […] NUMB RNA or U1A target RNA was titrated starting from 1000 nM in 2× dilution over 9 points against U1A 5 nM+U1A Target-Biotin5′ 1.25 nM. […] X axis: Log of CTRL RNA (M); Y axis: (Streptavidin XL665/6His TB cryptate ratio)*1000.
(§4) NUMB RNA or U1A target RNA was titrated starting from 1000 nM in 2× dilution over 9 points against MSI2 5 nM+NUMB-Biotin5′ 1.25 nM. […] NUMB RNA or U1A target RNA was titrated starting from 1000 nM in 2× dilution over 9 points against U1A 5 nM+U1A Target-Biotin5′ 1.25 nM. […]

Data set [3] has as its target T4, U1A protein and U1A target-Biotin5′ RNA (Homo sapiens, UniProt P09012).
T4 construct: purchased LS Bio G19194-10
The data set can be described thus: U1A:Target-CTRL RNA competition assay, HTRF (384 well plate). The conditions noted are these: competitor RNA titrated from 1000 nM, 2× dilution over 9 points; U1A 5 nM + U1A Target-Biotin5′ 1.25 nM. It counts as binding. As for the experimental part:
as §2, §3, §4

T1 sequence (Q96DH6 whole entry): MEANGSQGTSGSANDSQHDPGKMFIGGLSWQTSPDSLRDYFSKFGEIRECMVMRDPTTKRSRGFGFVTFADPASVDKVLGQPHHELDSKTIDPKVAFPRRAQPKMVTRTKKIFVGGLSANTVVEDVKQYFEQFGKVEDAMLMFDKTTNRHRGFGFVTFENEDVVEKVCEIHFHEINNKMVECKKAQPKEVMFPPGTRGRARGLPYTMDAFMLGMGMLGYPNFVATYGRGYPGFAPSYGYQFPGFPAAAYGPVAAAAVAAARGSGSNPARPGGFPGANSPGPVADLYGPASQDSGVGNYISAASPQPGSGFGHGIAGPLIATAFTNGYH
T2 sequence (Q96DH6 whole entry): as above
T3 sequence (Q96DH6 whole entry): as above
T4 sequence (P09012 whole entry, species assumed): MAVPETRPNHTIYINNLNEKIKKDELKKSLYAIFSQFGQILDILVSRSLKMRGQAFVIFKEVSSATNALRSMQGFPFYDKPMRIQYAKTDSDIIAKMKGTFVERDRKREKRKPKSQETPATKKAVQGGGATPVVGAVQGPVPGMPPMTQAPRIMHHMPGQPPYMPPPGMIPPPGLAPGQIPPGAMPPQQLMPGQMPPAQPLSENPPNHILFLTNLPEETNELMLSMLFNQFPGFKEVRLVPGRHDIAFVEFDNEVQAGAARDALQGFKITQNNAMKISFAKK

Consider `Cc1cc(C)n2c(SCC(=O)c3cccc(N4CCCC4=O)c3)nnc2n1` [1-{3-[2-({5,7-dimethyl-[1,2,4]triazolo[4,3-a]pyrimidin-3-yl}sulfanyl)acetyl]phenyl}pyrrolidin-2-one], for which the “inhibitor of MSI2-RNA interaction identified by the method” value (“inhibitor” below) against MSI2-RNA interaction is recorded as “inhibitors of MSI2-RNA interaction”.

As for `Cc1ccc(C)n1-c1ccc(SCC(=O)O)cc1` [2-{[4-(2,5-dimethyl-1H-pyrrol-1-yl)phenyl]sulfanyl}acetic acid], the “inhibitor” value against MSI2-RNA interaction was “inhibitors of MSI2-RNA interaction”.

`Cc1ccc(C)n1-c1sccc1C(=O)N1CC(C(N)=O)Oc2ccccc21` (stereo not drawn) [4-[2-(2,5-dimethyl-1H-pyrrol-1-yl)thiophene-3-carbonyl]-3,4-dihydro-2H-1,4-benzoxazine-2-carboxamide]: on MSI2-RNA interaction, the “inhibitor” value is recorded as “inhibitors of MSI2-RNA interaction”.

Regarding `O=c1cc(CN2CCn3c(nnc3-c3ccccc3)C2)[nH]c2ccnn12` [5-({3-phenyl-5H,6H, 7H,8H-[1,2,4]triazolo[4,3-a]pyrazin-7-yl}methyl)-4H,7H-pyrazolo[1,5-a]pyrimidin-7-one], the “inhibitor” value against MSI2-RNA interaction is listed as “inhibitors of MSI2-RNA interaction”.

For `CC(=O)N1CCC(NC(=O)c2cc(C)c(C)s2)CC1` [N-(1-acetylpiperidin-4-yl)-4,5-dimethylthiophene-2-carboxamide], the “inhibitor” value on MSI2-RNA interaction is listed as “inhibitors of MSI2-RNA interaction”.

For the molecule `Cc1ccc(C)n1-c1sccc1C(=O)N1CC(C(N)=O)Oc2ccccc21` (stereo not drawn) [WXHTS0047719, 4-[2-(2,5-dimethyl-1H-pyrrol-1-yl)thiophene-3-carbonyl]-3,4-dihydro-2H-1,4-benzoxazine-2-carboxamide], the IC50 in data set [1] was 710 nM.

On to `Cc1ccc(C)n1-c1ccc(SCC(=O)O)cc1` [WXHTS0063086, 2-{[4-(2,5-dimethyl-1H-pyrrol-1-yl)phenyl]sulfanyl}acetic acid], for which the IC50 in data set [1] turned out to be 470 nM.

Consider `Cc1cc(C)n2c(SCC(=O)c3cccc(N4CCCC4=O)c3)nnc2n1` [WXHTS0080223, 1-{3-[2-({5,7-dimethyl-[1,2,4]triazolo[4,3-a]pyrimidin-3-yl}sulfanyl)acetyl]phenyl}pyrrolidin-2-one], for which the IC50 in data set [1] was 850 nM.

On to `CC(=O)N1CCC(NC(=O)c2cc(C)c(C)s2)CC1` [WXHTS0092123, N-(1-acetylpiperidin-4-yl)-4,5-dimethylthiophene-2-carboxamide], for which, in data set [1], the IC50 amounted to 920 nM.

With `O=c1cc(CN2CCn3c(nnc3-c3ccccc3)C2)[nH]c2ccnn12` [WXHTS0101810, 5-({3-phenyl-5H,6H, 7H,8H-[1,2,4]triazolo[4,3-a]pyrazin-7-yl}methyl)-4H,7H-pyrazolo[1,5-a]pyrimidin-7-one], the IC50 in data set [1] amounted to 850 nM.

With “NUMB RNA: non-biotinylated NUMB RNA that competes with NUMB-Biotin 5′ RNA to bind the MSI2 protein (UAGGUAGUAGUUUUA; non-biotinylated RNA, further chemistry not given here)”, the “displacement of the binding signal between MSI2 protein and NUMB-Biotin5′ RNA” value in data set [2] is listed as “displaced the binding signal”. For the same molecule, the “displacement of the binding signal between U1A protein and U1A target-Biotin5′ RNA” value in data set [3] is “did not displace the binding signal”.
